This is an account of results in ChEMBL document CHEMBL6127118, “Identification of Oral Bioavailable Coumarin Derivatives as Potential AR Antagonists Targeting Prostate Cancer” (J Med Chem, 2024).

Data set [1] concerns the target T1, Mineralocorticoid receptor (Homo sapiens, UniProt P08235).
T1 sequence (P08235 whole entry): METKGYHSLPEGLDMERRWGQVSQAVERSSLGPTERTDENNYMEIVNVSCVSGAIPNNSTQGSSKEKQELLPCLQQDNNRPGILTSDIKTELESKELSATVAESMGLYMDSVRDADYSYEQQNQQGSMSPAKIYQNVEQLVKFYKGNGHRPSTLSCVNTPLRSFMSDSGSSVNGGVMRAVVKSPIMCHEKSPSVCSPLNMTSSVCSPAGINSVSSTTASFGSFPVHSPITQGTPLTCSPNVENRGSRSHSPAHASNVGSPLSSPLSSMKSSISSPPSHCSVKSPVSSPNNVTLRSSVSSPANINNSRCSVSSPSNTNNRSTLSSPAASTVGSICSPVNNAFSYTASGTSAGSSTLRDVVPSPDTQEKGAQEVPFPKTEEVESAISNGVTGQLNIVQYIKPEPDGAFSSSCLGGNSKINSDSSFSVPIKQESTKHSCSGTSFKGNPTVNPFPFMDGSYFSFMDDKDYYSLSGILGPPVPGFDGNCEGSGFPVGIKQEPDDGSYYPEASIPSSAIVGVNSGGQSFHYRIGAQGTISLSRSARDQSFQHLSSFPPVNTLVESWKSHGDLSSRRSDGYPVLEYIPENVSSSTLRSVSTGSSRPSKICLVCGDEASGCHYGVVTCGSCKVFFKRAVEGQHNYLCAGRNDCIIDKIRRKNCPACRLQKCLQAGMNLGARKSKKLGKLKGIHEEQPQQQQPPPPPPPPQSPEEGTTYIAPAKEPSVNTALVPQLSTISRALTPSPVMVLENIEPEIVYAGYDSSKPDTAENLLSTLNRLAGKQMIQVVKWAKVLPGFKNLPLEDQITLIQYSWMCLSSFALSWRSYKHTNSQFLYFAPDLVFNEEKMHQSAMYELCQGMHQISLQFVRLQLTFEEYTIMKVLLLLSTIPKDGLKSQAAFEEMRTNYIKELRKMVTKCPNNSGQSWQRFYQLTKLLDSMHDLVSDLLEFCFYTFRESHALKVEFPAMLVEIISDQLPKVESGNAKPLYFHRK
Kind of data set: Antagonist activity at aldosterone-induced Mineralocorticoid receptor (unknown origin) transfected in HEK293T cells by Dual-Luciferase Reporter assay.

Data set [2] is described as follows: Inhibition of DHT-induced secreted PSA production in human LNCaP cells.
The subject of a further data set is CWR22R. Description: Antiproliferative activity against androgen independent-human 22Rv1 cells incubated for 72 hrs by MTT assay. The following applies: 22Rv1, 72 h.
For another data set, the system named is PC-3. Description: Antiproliferative activity against androgen independent-human PC-3 cells incubated for 72 hrs by MTT assay. The following applies: PC-3, 72 h. A general note: Tetrazolium dyes change colour on reduction, which living cells bring about.
Another data set deals with LNCaP. Description: Antiproliferative activity against androgen dependent-human LNCaP cells incubated for 72 hrs by MTT assay.
A short description of data set [3]: (§1) Antiproliferative activity against human GES1 cells incubated for 72 hrs by MTT assay. Format: toxicity, cell-based. As to conditions: GES1 cells.
The next data set relates to GES1. Described as §1. Format: toxicity, cell-based. As to conditions: ges1, 72 h, time 72 hrs.
Data set [4] can be described thus: AUC (0 to t) in Sprague-Dawley rat at 5 mg/kg, po. Format: ADME, organism-based. As to conditions: in vivo.
The nature of data set [5]: Half life in Sprague-Dawley rat at 5 mg/kg, po. Format: ADME, organism-based. The following applies: in vivo.
Data set [6] in a line: Cmax in Sprague-Dawley rat at 5 mg/kg, po. Format: ADME, organism-based. As to conditions: in vivo.
The nature of data set [7]: Toxicity in CB17 SCID mouse model xenografted with human LNCaP cells assessed as body weight loss at 60 mg/kg, po bid for 32 days. The following applies: in vivo, 768 h, time 32 day. Format: organism-based.
The nature of data set [8]: Antiproliferative activity against human Chang liver cells incubated for 72 hrs by MTT assay. Format: toxicity, cell-based.
The target in data set [9] is Androgen receptor (Homo sapiens, UniProt P10275, W742C). Description: Antagonist activity at DHT-induced Androgen receptor W741C mutant in human PC-3 cells transfected with ARR2PB-Luc by Dual-Luciferase Reporter assay. Format: cell-based. A general note: A reporter such as luciferase makes a cellular process visible.
The nature of data set [10]: Toxicity in CB17 SCID mouse model xenografted with human LNCaP cells assessed as drug tolerance at 60 mg/kg, po bid for 32 days. Format: organism-based. The following applies: in vivo, 768 h, time 32 day. A general note: In xenograft studies the graft and the host belong to different species.
The nature of data set [11]: Half life in Sprague-Dawley rat at 1 mg/kg, iv. Format: ADME, organism-based. As to conditions: in vivo.
A short description of data set [12]: Cmax in Sprague-Dawley rat at 1 mg/kg, iv. Format: ADME, organism-based. As to conditions: in vivo.
The target in data set [13] is Androgen receptor (Homo sapiens, UniProt P10275, F877L/T878A). Kind of data set: Antagonist activity at DHT-induced Androgen receptor F876L/[…] mutant in human PC-3 cells transfected with ARR2PB-Luc by Dual-Luciferase Reporter assay. Format: cell-based.
The nature of data set [14]: Toxicity in CB17 SCID mouse model xenografted with human LNCaP cells assessed as signs of toxicity at 60 mg/kg, po bid for 32 days. Format: organism-based. The following applies: in vivo, 768 h, time 32 day.
The nature of data set [15]: Oral bioavailability in Sprague-Dawley rat at 5 mg/kg. Format: ADME, organism-based. The following applies: in vivo.
Data set [16] is described as follows: Clearance in Sprague-Dawley rat at 1 mg/kg, iv. The following applies: in vivo. Format: ADME, organism-based.
Data set [17] is described as follows: AUC (0 to t) in Sprague-Dawley rat at 1 mg/kg, iv. Format: ADME, organism-based. The following applies: in vivo.
A short description of data set [18]: Clearance in Sprague-Dawley rat at 5 mg/kg, po. Format: ADME, organism-based. The following applies: in vivo.
Data set [19] concerns the target T2, Androgen receptor (Homo sapiens, UniProt P10275).
T2 sequence (P10275 whole entry): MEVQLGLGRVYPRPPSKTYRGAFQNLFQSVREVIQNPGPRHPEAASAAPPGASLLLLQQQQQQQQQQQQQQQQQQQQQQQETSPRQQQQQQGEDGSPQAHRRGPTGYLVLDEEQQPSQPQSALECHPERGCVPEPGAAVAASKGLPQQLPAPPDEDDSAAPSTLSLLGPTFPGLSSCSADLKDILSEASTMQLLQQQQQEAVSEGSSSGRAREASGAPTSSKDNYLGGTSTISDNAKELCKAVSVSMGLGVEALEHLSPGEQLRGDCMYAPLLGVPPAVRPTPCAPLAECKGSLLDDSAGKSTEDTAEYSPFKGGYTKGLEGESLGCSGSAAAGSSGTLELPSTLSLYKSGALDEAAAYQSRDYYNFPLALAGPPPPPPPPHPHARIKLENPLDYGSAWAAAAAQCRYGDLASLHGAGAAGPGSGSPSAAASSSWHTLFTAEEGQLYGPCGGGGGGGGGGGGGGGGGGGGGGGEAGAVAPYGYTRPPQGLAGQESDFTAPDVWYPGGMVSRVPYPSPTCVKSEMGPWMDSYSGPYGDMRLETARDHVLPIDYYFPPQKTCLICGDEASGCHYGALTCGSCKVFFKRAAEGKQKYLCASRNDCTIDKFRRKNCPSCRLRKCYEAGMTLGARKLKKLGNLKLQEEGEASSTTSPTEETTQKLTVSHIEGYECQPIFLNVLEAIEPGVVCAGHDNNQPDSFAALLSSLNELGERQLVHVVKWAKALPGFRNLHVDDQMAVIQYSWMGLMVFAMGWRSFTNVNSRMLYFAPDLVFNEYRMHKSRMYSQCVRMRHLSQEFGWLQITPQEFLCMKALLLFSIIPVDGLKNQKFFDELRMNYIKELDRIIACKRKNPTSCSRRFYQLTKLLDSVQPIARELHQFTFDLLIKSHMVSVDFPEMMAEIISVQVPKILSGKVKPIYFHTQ
Kind of data set: Antagonist activity at DHT-induced Androgen receptor in human LNCaP cells transfected with ARR2PB-eGFP incubated for 3 days. Format: cell-based.

Data set [20] is described as follows: Apparent volume of distribution in Sprague-Dawley rat at 1 mg/kg, iv. Format: ADME, organism-based. As to conditions: in vivo, read-out: Vz.
A short description of data set [21]: Apparent volume of distribution in Sprague-Dawley rat at 5 mg/kg, po. Format: ADME, organism-based. The following applies: in vivo.
For another data set, the system named is NIH3T3. Kind of data set: Antiproliferative activity against mouse NIH3T3 cells incubated for 72 hrs by MTT assay. The following applies: nih3t3, 72 h. Format: toxicity, cell-based.
The next data set relates to LNCaP C4-2B. Description: Antiproliferative activity against androgen independent-human LNCaP C4-2B cells incubated for 72 hrs by MTT assay.
Another data set deals with DU-145. Kind of data set: Antiproliferative activity against androgen independent-human DU-145 cells incubated for 72 hrs by MTT assay. As to conditions: DU-145, 72 h.

Androgen receptor (Homo sapiens, UniProt P10275, W742C), sequence (P10275 whole entry W742C): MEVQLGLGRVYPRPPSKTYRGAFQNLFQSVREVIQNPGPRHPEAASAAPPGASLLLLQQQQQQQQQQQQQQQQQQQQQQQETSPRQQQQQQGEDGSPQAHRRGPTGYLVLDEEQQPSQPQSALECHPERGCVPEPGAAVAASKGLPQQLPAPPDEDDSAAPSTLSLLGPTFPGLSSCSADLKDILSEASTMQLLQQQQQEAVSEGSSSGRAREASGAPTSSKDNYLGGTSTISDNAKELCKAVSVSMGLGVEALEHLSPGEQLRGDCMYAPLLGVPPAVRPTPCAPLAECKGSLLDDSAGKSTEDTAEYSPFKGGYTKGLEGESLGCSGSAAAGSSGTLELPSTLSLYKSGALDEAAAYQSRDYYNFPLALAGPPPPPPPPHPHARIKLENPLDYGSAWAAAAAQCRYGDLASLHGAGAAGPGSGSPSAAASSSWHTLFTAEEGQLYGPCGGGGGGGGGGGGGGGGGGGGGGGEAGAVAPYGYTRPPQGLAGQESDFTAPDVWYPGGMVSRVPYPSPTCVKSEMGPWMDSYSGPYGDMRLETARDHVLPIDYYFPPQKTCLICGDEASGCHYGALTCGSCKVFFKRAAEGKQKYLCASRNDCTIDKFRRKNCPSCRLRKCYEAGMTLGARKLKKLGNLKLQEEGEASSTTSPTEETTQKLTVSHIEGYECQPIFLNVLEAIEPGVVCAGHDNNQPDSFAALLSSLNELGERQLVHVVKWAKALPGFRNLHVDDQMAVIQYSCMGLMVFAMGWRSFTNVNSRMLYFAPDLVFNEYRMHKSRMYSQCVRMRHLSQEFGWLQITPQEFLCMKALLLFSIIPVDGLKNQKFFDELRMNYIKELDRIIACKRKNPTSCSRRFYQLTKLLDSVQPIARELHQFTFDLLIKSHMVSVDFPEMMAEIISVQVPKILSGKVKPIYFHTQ
Androgen receptor (Homo sapiens, UniProt P10275, F877L/T878A), sequence (P10275 whole entry F877L/T878A): as the sequence (P10275 whole entry W742C) above, with C742W, F877L, T878A counted along it

One may read the IC50 as the concentration that gives 50% inhibition. Low values mean greater potency in that assay, high ones weaker potency in that assay. In [1], `C[C@]12CCC(=O)C[C@@H]1CC[C@@H]1[C@@H]2CC[C@]2(C)[C@@H](O)CC[C@@H]12` [STANOLONE] came in with a concentration for half-maximal inhibition (IC50) of 0.00124 µM.
In the case of `CNC(=O)c1ccc(N2C(=S)N(c3ccc(C#N)c(C(F)(F)F)c3)C(=O)C2(C)C)cc1F` [ENZALUTAMIDE], the IC50 is 0.42 µM in data set [2], above 50 µM in the data set on CWR22R, above 50 µM in the data set with PC-3 and 23.3 µM in the data set with LNCaP. Also, the IC50 at 72 h in data set [3] was above 50 µM. Moreover, the Activity result in the data set on GES1 is “Non-Toxic”.
Usually AUC(0-t) stands for the area under the concentration-time curve up to a stated or last time point. What is called half-life is the time in which the quantity being followed falls by half. Low readings indicate fast loss, high ones slow loss. Usually Cmax stands for the maximum level reached in the sampled fluid or tissue. What is called bioavailability is dose-corrected exposure relative to a reference, in per cent. High values mean good availability, low ones poor availability. One may read the clearance as the rate of elimination divided by the concentration. In general, CL/F refers to clearance divided by bioavailability, as obtained after extravascular dosing. `CN(Cc1ccc(F)cc1)c1ccc2c(C(F)(F)F)cc(=O)oc2c1`: the values for the exposure AUC(0-t) in data set [4] and in [17] were 1410 ng·h/mL and 426 ng·h/mL, respectively. Further, the half-life in data set [5] is 289 min; in [11], 30 min. The peak concentration (Cmax) was determined as 353 ng/mL in [6] and 1060 ng/mL in data set [12]. The Activity entry (in data set [7]; in data set [8]; in data set [10]; in the data set on GES1; in data set [14]; with NIH3T3) was “Non-Toxic” in each case. Moreover, the 50% inhibitory concentration (IC50) against Androgen receptor [9] is 0.16 µM; against Androgen receptor [13], 0.17 µM; at Androgen receptor [19] it was 0.051 µM. This compound returned a bioavailability in data set [15] of 66.2%. The same compound gave a clearance in data set [16] of 41 mL/min/kg. Further, the CL/F in [18] was 58.5 mL/min/kg. The Vd in data set [20] was found to be 1.81 L/kg. The Vz in [21] worked out at 24.6 L/kg.
Regarding `O=c1cc(C(F)(F)F)c2ccc(NCc3ccc(F)cc3)cc2o1`, the AUC(0-t) in data set [4] was found to be 4.09 ng·h/mL; in data set [17] it was 32.4 ng·h/mL. Further, the results for the peak concentration (Cmax) in [6] and in data set [12] were 10.8 ng/mL and 82.1 ng/mL, respectively. In addition, the 50% inhibitory concentration (IC50) in the data set with CWR22R was 24.2 µM; in the data set with LNCaP C4-2B it was 4.91 µM; in the data set on DU-145, 6.32 µM; in the data set with PC-3, 21.3 µM; in the data set on LNCaP it was 1.9 µM; against Androgen receptor [19] it was 0.024 µM. The compound further gave a half-life in data set [11] of 12.6 min. In [3], this compound had an IC50 at 72 h of 16 µM. The compound also came in with a bioavailability in data set [15] of 2.5%. In data set [16], this compound showed a clearance of 507 mL/min/kg. For the same compound, the Vd in [20] turned out to be 9.26 L/kg.
